Reference: US8513409B2, “Introverted CB[n] compounds” (University of Maryland, priority 2005, dated 2013)

Experiments:
[1] = Solubility of CB[n] in water, aqueous MeOH, HCl and Na2SO4 solutions; type: physicochemical; conditions: for solubility in 50% aqueous MeOH solution (v/v): 50% aqueous MeOH (v/v)
Experimental: CB[5]. […] By washing the crude solids repeatedly with large volumes of water a mixture of CB[5] and CB[7] was isolated. […] The solubility of CB[7] is less than 4 mg/mL in this solution. By extracting the solid mixture of CB[5] and CB[7] with 50% aq. MeOH CB[5] is separated from CB[7].
CB[8]. […] By washing the crude mixture of CB[6], CB[8], CB[5]@CB[10], introverted CB[6], and CB[8] with 3 M HCl CB[8] is isolated as an insoluble solid.
Introverted CB[6]. […] Na2SO4 which allows it to be isolated as an insoluble solid by washing and filtration.
Subsequent purification. The separation of each component (CB[5], CB[6], CB[7], CB[8], and iCB[6]) from Crop 1 and Crop 2 was enabled due to their differential solubility in HCl solutions. • CB[5] and CB[7]. […] By washing the crude mixture of CB[6], Cb[8], and iCB[6] with 3.5 M HC1 it is possible to isolate Cb[8] as an insoluble solid. • iCB[6] and CB[6]. CB[6] and iCB[6] were separated by fractional crystallization from different concentration HC1 solutions. For example, the initial CB[6]/iCB[6] mixture was recrystallized from a minimum volume of conc. HC1. The filtrate is enriched in iCB[n]; adding the filtrate to MeOH gives the precipitate which is filtered and dried. The solid now enriched in iCB[6] is recrystallized from 17.5% HC1 which gives CB[6] as a solid and filtrate further enriched in iCB[6]. In this manner, the ratio of iCB[6];CB[6] is raised to ≈80:20. At this point, the mixture is dissolved in a minimum of conc. HC1. To this solution is added enough H2N(CH2)6NH2 to complex all of the CB[6] (≈25%). This solution is then diluted 5-fold with H20. The precipitate is isolated by centrifugation and washed several times with H2O which yields iCB[6] as a white solid in 2% overall yield.

[2] = conc. HCl 100° C., reported by Day and co-workers; cited from earlier work
[3] = Isothermal titration calorimetry of i-CB[7] with guest 1; type: binding; conditions: ITC, water, 30° C.
Experimental: (§1) Because of their smaller cavities and more open portals i-CB[6] and i-CB[7] bind most guest molecules less tightly than their CB[n] counterparts do. For example, when a light excess of 1 is added to a solution containing CB[6] and i-CB[6] Alkyl ammonium ions such as 2 are known to bind tightly to CB[6] with values of Ka in the μM range. In contrast, 2 bind less strongly to i-CB[6] […] Similarly, i-CB[7] retains the ability to bind to guests commonly bound to CB[7]1,8 (e.g. 1.2, and (ferrocenemethyl)trimethylammonium ion (3)) but with lower affinity and higher kinetic liability. The association constants (Ka) for the guests 1, 2, and 3 with i-CB[7] measured by isothermal titration calorimetry (ITC) are (9±1)×10^6 M^−1, (8.8±0.9)×10^5 M^−1, and (2.2±0.1)×10^6 M^−1, respectively, which are 2 to 6 order of magnitude lower than those with CB[7].
(§2) General. […] Melting points were measured on a Meltemp apparatus in open capillary tubes and are uncorrected. IR spectra were recorded on a Nicolet Magna or on a Perkin Elmer Spectrum GX FT-IR spectrophotometers as KBr pellets and are reported in cm^−1. NMR spectra were measured on a Bruker AM400 or on a Bruker DRX500 spectrometers operating at 400 or 500 MHz for ^1H and 100 or 125 MHz for ^13C. […] The formation constants for the inclusion of several guests in iCB[7] were determined by isothermal titration calorimetry using a VP-ITC instrument from MicroCal. […]

[4] = Isothermal titration calorimetry of i-CB[7] with guest 2; type: binding; conditions: ITC, water, 30° C.
Experimental: as §1, §2

[5] = Isothermal titration calorimetry of i-CB[7] with guest 3; type: binding; conditions: ITC, water, 30° C.
Experimental: FIG. 23 is a thermogram (top) and binding isotherm (bottom) of (ferrocenemethyl) trimethyl ammonium in complexing with i-CB[7] at 303K.
Because of their smaller cavities and more open portals i-CB[6] and i-CB[7] bind most guest molecules less tightly than their CB[n] counterparts do. For example, when a light excess of 1 is added to a solution containing CB[6] and i-CB[6] Alkyl ammonium ions such as 2 are known to bind tightly to CB[6] with values of Ka in the μM range. In contrast, 2 bind less strongly to i-CB[6] […] The association constants (Ka) for the guests 1, 2, and 3 with i-CB[7] measured by isothermal titration calorimetry (ITC) are (9±1)×10^6 M^−1, (8.8±0.9)×10^5 M^−1, and (2.2±0.1)×10^6 M^−1, respectively, which are 2 to 6 order of magnitude lower than those with CB[7].
as §2

[6] = 1H NMR competition of guests 1 and 2 for i-CB[7]; type: binding; conditions: 1 and 2 in ratio 1:1:1
Source text: (§3) FIG. 6 illustrates ^1HNMR spectra recorded for: a)) i-CB[6], CB[6] and 1 in a ratio of 1:1:2 (0.5M NaCl), and b) i-CB[7], 1 and 2 in a ratio of 1:1:1 (500 MHz, D2O), RT).
For example, i-CB[7] binds aromatic guest 1 more strongly than linear aliphatic guest 2. […] Thus, the inverted glycoluril unit modulates guest binding affinity and rates of dissociation, both of which are of critical importance in the creation of CB[n] based molecular machines.

[7] = Stability of CB[n] and i-CB[n] on heating in acid (product resubmission); type: physicochemical; conditions: purified compound heated in conc. DCl
Source text: The fact that the isomerization of methylene bridged glycoluril dimmers follows mechanism 3 is not only useful in the synthesis of our compounds, but is important for the tailored synthesis of CB[n] and its derivatives. For example, Day and co-workers have recently shown that heating purified CB[8] in conc. […] (Scheme 3). In contrast, pure CB[5], CB[6], and CB[7] are stable under these conditions. […] This type of reaction would likely follow a pathway related to mechanism 1. […] In aqueous acid, it is likely that H2O can compete with the internal N and O nucleophiles of mechanism 3 for the capture of 19 (Scheme 2), effectively forcing fragmentation of the methylene bridges by a variation of mechanism 1. In the absence of competing nucleophiles, under anhydrous acidic conditions, CB[n] (n>8) and derivatives display enhanced stability. This facilitates the preparation of higher CB[n] compounds in a controllable manner when using anhydrous acidic conditions where water-sensitive functional groups are present. If such groups are not present acidic aqueous conditions may be used.
By “anhydrous acidic conditions,” we mean that in initial attempts “standard conditions” (ClCH2CH2Cl, anh. PTSA, reflux) are used, and if solubility problems occur then neat anhydrous PTSA (m.p. 38° C.) and/or CH3SO3H may be used. Based on results, CB[8] is stable to these conditions as depicted in Scheme 3. […]

[8] = 1H NMR competition of CB[6] and i-CB[6] (1:1) for guest 1; type: binding; conditions: slight excess of 1 added to CB[6] and i-CB[6] (1:1)
Experimental: as §3, §1

O=C1N2CN3C(=O)N4CN5C(=O)N6CN7C(=O)N8CN9C(=O)N%10CN%11C(=O)N%12CN%13C(=O)N%14CN1C1C2N2CN%15C(=O)N(CN%16C(=O)N(CN%17C(=O)N(CN%18C(=O)N(CN%19C(=O)N(CN%20C(=O)N(CN1C2=O)C%14C%13%20)C%12C%11%19)C%10C9%18)C8C7%17)C6C5%16)C4C3%15 (stereo not drawn) [CB[7]]
solubility in 50% aqueous MeOH solution (v/v) [1]: less than 4 mg/mL
solubility in water [1]: moderate solubility
stability on heating in conc. HCl [2]: stable

O=C1N2CN3C(=O)N4CN5C(=O)N6CN7C(=O)N8CN9C(=O)N%10CN1C1C2N2CN%11C(=O)N(CN%12C(=O)N(CN%13C(=O)N(CN%14C(=O)N(CN1C2=O)C%10C9%14)C8C7%13)C6C5%12)C4C3%11 (stereo not drawn) [CB[5]]
solubility in 50% aqueous MeOH solution (v/v) [1]: about 33 mg/mL
solubility in water [1]: moderate solubility
stability on heating in conc. HCl [2]: stable

i-CB[7]
association constant (Ka) for guest 1 [3]: (9±1)×10^6 M^−1
association constant (Ka) for guest 2 [4]: (8.8±0.9)×10^5 M^−1
association constant (Ka) for guest 3 [5]: (2.2±0.1)×10^6 M^−1
guest preference in presence of 1 equiv 1 and 2 [6]: the majority of i-CB[7] forms a complex with 1
outcome of heating in conc. DCl [7]: a 4:1 mixture of CB[6], and CB[7] was obtained

O=C1N2CN3C(=O)N4CN5C(=O)N6CN7C(=O)N8CN9C(=O)N%10CN%11C(=O)N%12CN1C1C2N2CN%13C(=O)N(CN%14C(=O)N(CN%15C(=O)N(CN%16C(=O)N(CN%17C(=O)N(CN1C2=O)C%12C%11%17)C%10C9%16)C8C7%15)C6C5%14)C4C3%13 (stereo not drawn) [CB[6]]
share of host that forms a complex with guest 1 [8]: almost all
solubility in 3 M HCl solution ([1]; 3 M HCl): appreciable solubility
solubility in 3.5 M HCl solution ([1]; 3.5 M HCl): appreciable solubility
stability on heating in conc. HCl [2]: stable
